Here are results for four compounds from patent US8329717B2, “Pyrimidine derivatives and their use for controlling undesired plant growth” (Bayer Cropscience AG, priority 2008, dated 2012).

The test system of one data set is PHBPU. In words: Post-emergence herbicidal effect. The conditions noted are these: Dosage 320 g/ha, one-leaf stage, visual scoring after ca. 3 weeks vs untreated controls, 100% = plants have died. Format: in vivo. The procedure:
(§1) 2. Post-Emergence Herbicidal Effect and Crop Plant Compatibility Seeds of monocotyledonous or dicotyledonous weed plants or crop plants are planted in wood-fiber pots in sandy loam, covered with earth and grown in a greenhouse under good growth conditions. 2 to 3 weeks after sowing, the test plants are treated in the one-leaf stage. The compounds according to the invention, formulated in the form of wettable powders (WP) or as emulsion concentrates (EC), are then sprayed onto the green plant parts as aqueous suspension or emulsion at a water application rate of 600 to 800 l/ha (converted) with the addition of 0.2% of wetting agent. The dosage of the compounds according to the invention is given in grams per hectare. After ca. 3 weeks' standing time of the test plants in the greenhouse under optimum growth conditions, the effect of the preparations is scored visually in comparison with untreated controls (herbicidal effect in percent (%): 100% effect=plants have died, 0% effect=as control plants).

Data set [1] concerns Amaranthus retroflexus. In words: Post-emergence herbicidal effect. The following applies: Dosage 320 g/ha, one-leaf stage, visual scoring after ca. 3 weeks vs untreated controls, 100% = plants have died. Format: in vivo. The procedure: as §1, with “The following abbreviations are used in the tables below: [table] 2.” for “2.”
Data set [2] concerns Polygonum convolvulus. In words: Post-emergence herbicidal effect. Format: in vivo. The following applies: Dosage 320 g/ha, one-leaf stage, visual scoring after ca. 3 weeks vs untreated controls, 100% = plants have died. The procedure: as §1, with “The following abbreviations are used in the tables below: [table] 2.” for “2.”
Data set [3] has as its system Setaria viridis. In words: Post-emergence herbicidal effect. Format: in vivo. The following applies: Dosage 320 g/ha, one-leaf stage, visual scoring after ca. 3 weeks vs untreated controls, 100% = plants have died. The procedure:
as §1, with “The following abbreviations are used in the tables below: [table] 2.” for “2.”

The test system of a further data set is Abutilon theophrasti. In words: Post-emergence herbicidal effect. The conditions noted are these: Dosage 320 g/ha, one-leaf stage, visual scoring after ca. 3 weeks vs untreated controls, 100% = plants have died. Format: in vivo. The procedure: as §1, with “The following abbreviations are used in the tables below: [table] 2.” for “2.”
Data set [4] deals with Veronica persica. In words: Post-emergence herbicidal effect. The format is in vivo. The conditions noted are these: Dosage 320 g/ha, one-leaf stage, visual scoring after ca. 3 weeks vs untreated controls, 100% = plants have died. As to the method: as §1, with “The following abbreviations are used in the tables below: [table] 2.” for “2.”
Data set [5] concerns Stellaria media. In words: Post-emergence herbicidal effect. The format is in vivo. The following applies: Dosage 320 g/ha, one-leaf stage, visual scoring after ca. 3 weeks vs untreated controls, 100% = plants have died. As to the method:
as §1, with “The following abbreviations are used in the tables below: [table] 2.” for “2.”

In data set [6] the test system is Echinochloa crus-galli. In words: Post-emergence herbicidal effect. Format: in vivo. The following applies: Dosage 320 g/ha, one-leaf stage, visual scoring after ca. 3 weeks vs untreated controls, 100% = plants have died. The procedure:
as §1, with “The following abbreviations are used in the tables below: [table] 2.” for “2.”

The subject of data set [7] is Viola tricolor. In words: Post-emergence herbicidal effect. The following applies: Dosage 320 g/ha, one-leaf stage, visual scoring after ca. 3 weeks vs untreated controls, 100% = plants have died. The format is in vivo. As to the method: as §1, with “The following abbreviations are used in the tables below: [table] 2.” for “2.”
Data set [8] has as its system Matricaria inodora. In words: Post-emergence herbicidal effect. Format: in vivo. The following applies: Dosage 320 g/ha, one-leaf stage, visual scoring after ca. 3 weeks vs untreated controls, 100% = plants have died. As to the method: as §1, with “The following abbreviations are used in the tables below: [table] 2.” for “2.”
In data set [9] the test system is Amaranthus retroflexus. In words: Pre-emergence herbicidal effect. The conditions noted are these: Dosage 320 g/ha, visual scoring after 3 weeks vs untreated controls, 100% = plants have died. The format is in vivo. An outline of the steps:
(§2)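 Herbicidal effect is a visual percentage of damage relative to untreated controls, taken after 3 weeks in the greenhouse. Treatment went onto the covering soil directly after sowing, as emulsion or suspension at 600 to 800 l/ha water with 0.2% wetting agent, dosed in g/ha.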

Data set [10] relates to Polygonum convolvulus. In words: Pre-emergence herbicidal effect. The format is in vivo. The conditions noted are these: Dosage 320 g/ha, visual scoring after 3 weeks vs untreated controls, 100% = plants have died. An outline of the steps:
as §2

Data set [11] concerns Setaria viridis. In words: Pre-emergence herbicidal effect. The format is in vivo. The conditions noted are these: Dosage 320 g/ha, visual scoring after 3 weeks vs untreated controls, 100% = plants have died. A digest of the protocol:
as §2

Data set [12] has as its system Alopecurus myosuroides. In words: Pre-emergence herbicidal effect. Format: in vivo. The following applies: Dosage 320 g/ha, visual scoring after 3 weeks vs untreated controls, 100% = plants have died. A digest of the protocol: as §2
In data set [13] the test system is Veronica persica. In words: Pre-emergence herbicidal effect. The format is in vivo. The following applies: Dosage 320 g/ha, visual scoring after 3 weeks vs untreated controls, 100% = plants have died. A digest of the protocol: as §2
The subject of data set [14] is Stellaria media. In words: Pre-emergence herbicidal effect. Format: in vivo. The following applies: Dosage 320 g/ha, visual scoring after 3 weeks vs untreated controls, 100% = plants have died. An outline of the steps: as §2
For data set [15], the system named is Echinochloa crus-galli. In words: Pre-emergence herbicidal effect. The conditions noted are these: Dosage 320 g/ha, visual scoring after 3 weeks vs untreated controls, 100% = plants have died. Format: in vivo. An outline of the steps:
as §2

Data set [16] has as its system Lolium multiflorum. In words: Pre-emergence herbicidal effect. Format: in vivo. The following applies: Dosage 320 g/ha, visual scoring after 3 weeks vs untreated controls, 100% = plants have died. A digest of the protocol: as §2
The subject of data set [17] is Viola tricolor. In words: Pre-emergence herbicidal effect. The format is in vivo. The conditions noted are these: Dosage 320 g/ha, visual scoring after 3 weeks vs untreated controls, 100% = plants have died. A digest of the protocol: as §2
The test system of data set [18] is Matricaria inodora. In words: Pre-emergence herbicidal effect. The format is in vivo. The conditions noted are these: Dosage 320 g/ha, visual scoring after 3 weeks vs untreated controls, 100% = plants have died. An outline of the steps:
as §2

A further data set has as its system Avena fatua. In words: Pre-emergence herbicidal effect. Format: in vivo. The conditions noted are these: Dosage 320 g/ha, visual scoring after 3 weeks vs untreated controls, 100% = plants have died. A digest of the protocol:
as §2

Data set [19] has as its system Alopecurus myosuroides. In words: Post-emergence herbicidal effect. The format is in vivo. The following applies: Dosage 320 g/ha, one-leaf stage, visual scoring after ca. 3 weeks vs untreated controls, 100% = plants have died. The procedure:
as §1, with “The following abbreviations are used in the tables below: [table] 2.” for “2.”

The test system of data set [20] is Lolium multiflorum. In words: Post-emergence herbicidal effect. Format: in vivo. The following applies: Dosage 320 g/ha, one-leaf stage, visual scoring after ca. 3 weeks vs untreated controls, 100% = plants have died. As to the method:
as §1, with “The following abbreviations are used in the tables below: [table] 2.” for “2.”

Data set [21] can be described thus: logp (HCOOH), chemicophysical data. The conditions noted are these: HCOOH (formic acid).
The subject of a further data set is Cyperus esculentus. In words: Pre-emergence herbicidal effect. The format is in vivo. The conditions noted are these: Dosage 320 g/ha, visual scoring after 3 weeks vs untreated controls, 100% = plants have died. An outline of the steps:
as §2

Take `Cc1ccc2c(c1)[C@H](Nc1nc(C)c([N+](=O)[O-])c(N)n1)[C@@H](C)C2` [Example 1.120]: the “Post-emergence herbicidal effect PHBPU” value in the data set on PHBPU is reported as 100%. In the data set on Amaranthus retroflexus [1], the “Post-emergence herbicidal effect AMARE” value is given as 90%. The “Post-emergence herbicidal effect POLCO” value in the data set on Polygonum convolvulus [2] worked out at 80%. Besides, the “Post-emergence herbicidal effect SETVI” value in the data set on Setaria viridis [3] is 85%. The “Post-emergence herbicidal effect ABUTH” value with Abutilon theophrasti stood at 90%. In addition, the “Post-emergence herbicidal effect VERPE” value with Veronica persica [4] turned out to be 90%. The “Post-emergence herbicidal effect STEME” value in the data set on Stellaria media [5] was 85%. Moreover, in the data set with Echinochloa crus-galli [6], the “Post-emergence herbicidal effect ECHCG” value is listed as 100%. In addition, in the data set on Viola tricolor [7], the “Post-emergence herbicidal effect VIOTR” value amounted to 90%. For the same compound, the “Post-emergence herbicidal effect MATIN” value in the data set on Matricaria inodora [8] came out at 80%. For the same compound, the “Pre-emergence herbicidal effect AMARE” value with Amaranthus retroflexus [9] is recorded as 100%. Also, the “Pre-emergence herbicidal effect POLCO” value in the data set with Polygonum convolvulus [10] is on record as 100%. For the same compound, the “Pre-emergence herbicidal effect SETVI” value in the data set with Setaria viridis [11] is 100%. For the same compound, in the data set with Alopecurus myosuroides [12], the “Pre-emergence herbicidal effect ALOMY” value turned out to be 100%. The “Pre-emergence herbicidal effect VERPE” value with Veronica persica [13] is recorded as 100%. For the same compound, the “Pre-emergence herbicidal effect STEME” value in the data set on Stellaria media [14] worked out at 100%. Further, the “Pre-emergence herbicidal effect ECHCG” value in the data set with Echinochloa crus-galli [15] is 100%. In addition, the “Pre-emergence herbicidal effect LOLMU” value in the data set with Lolium multiflorum [16] turned out to be 90%. Moreover, in the data set with Viola tricolor [17], the “Pre-emergence herbicidal effect VIOTR” value was 100%. Besides, in the data set with Matricaria inodora [18], the “Pre-emergence herbicidal effect MATIN” value is reported as 100%. Moreover, in the data set on Avena fatua, the “Pre-emergence herbicidal effect AVEFA” value is 80%.

With `CC[C@H]1Cc2ccc(C)cc2[C@@H]1Nc1nc(C)c(C#N)c(N)n1` [Example 1.96], the “Post-emergence herbicidal effect PHBPU” value with PHBPU is on record as 90%. Besides, in the data set with Amaranthus retroflexus [1], the “Post-emergence herbicidal effect AMARE” value was found to be 85%. Besides, the “Post-emergence herbicidal effect POLCO” value in the data set with Polygonum convolvulus [2] amounted to 85%. In addition, the “Post-emergence herbicidal effect SETVI” value in the data set with Setaria viridis [3] is given as 85%. Also, the “Post-emergence herbicidal effect ABUTH” value in the data set with Abutilon theophrasti worked out at 85%. For the same compound, in the data set with Alopecurus myosuroides [19], the “Post-emergence herbicidal effect ALOMY” value was 80%. In the data set with Veronica persica [4], the “Post-emergence herbicidal effect VERPE” value is recorded as 85%. Also, the “Post-emergence herbicidal effect STEME” value with Stellaria media [5] worked out at 95%. For the same compound, the “Post-emergence herbicidal effect ECHCG” value with Echinochloa crus-galli [6] is 85%. For the same compound, the “Post-emergence herbicidal effect LOLMU” value with Lolium multiflorum [20] stood at 90%. In the data set on Viola tricolor [7], the “Post-emergence herbicidal effect VIOTR” value was determined as 85%. Also, the “Pre-emergence herbicidal effect AMARE” value in the data set on Amaranthus retroflexus [9] amounted to 100%. Besides, the “Pre-emergence herbicidal effect POLCO” value in the data set with Polygonum convolvulus [10] came out at 100%. Also, the “Pre-emergence herbicidal effect SETVI” value in the data set on Setaria viridis [11] is on record as 100%. Moreover, the “Pre-emergence herbicidal effect ALOMY” value in the data set with Alopecurus myosuroides [12] is given as 100%. The “Pre-emergence herbicidal effect VERPE” value with Veronica persica [13] was found to be 100%. Moreover, the “Pre-emergence herbicidal effect STEME” value in the data set with Stellaria media [14] is on record as 100%. For the same compound, in the data set with Echinochloa crus-galli [15], the “Pre-emergence herbicidal effect ECHCG” value worked out at 100%. The “Pre-emergence herbicidal effect LOLMU” value in the data set on Lolium multiflorum [16] was 100%. In addition, in the data set with Viola tricolor [17], the “Pre-emergence herbicidal effect VIOTR” value was determined as 100%. In addition, the “Pre-emergence herbicidal effect MATIN” value with Matricaria inodora [18] was found to be 100%. Moreover, the “Pre-emergence herbicidal effect AVEFA” value with Avena fatua amounted to 80%.

In the case of `Cc1ccc2c(c1)[C@H](Nc1ncc(C#C[Si](C)(C)C)c(N)n1)[C@@H](C)C2` [Example 1.98, N2-[(1R,2S)-2,6-Dimethyl-2,3-dihydro-1H-inden-1-yl]-5-[(trimethylsilyl)ethynyl]-pyrimidine-2,4-diamine], the chromatographic logP in [21] was 2.28. Further, the “Pre-emergence herbicidal effect AMARE” value with Amaranthus retroflexus [9] is on record as 80%. Moreover, the “Pre-emergence herbicidal effect SETVI” value with Setaria viridis [11] came out at 80%. Also, in the data set with Veronica persica [13], the “Pre-emergence herbicidal effect VERPE” value was found to be 100%. For the same compound, the “Pre-emergence herbicidal effect STEME” value in the data set on Stellaria media [14] was 100%. The “Pre-emergence herbicidal effect VIOTR” value in the data set on Viola tricolor [17] came out at 100%. The “Pre-emergence herbicidal effect MATIN” value with Matricaria inodora [18] was found to be 80%. Moreover, the “Pre-emergence herbicidal effect CYPES” value with Cyperus esculentus came to 100%.

`Cc1nc(NC2CCc3ccccc32)nc(N)c1C#N` (racemic) [Example 1.24]: the “Post-emergence herbicidal effect VERPE” value in the data set with Veronica persica [4] was found to be 90%. Besides, the “Post-emergence herbicidal effect STEME” value in the data set with Stellaria media [5] was 100%. Further, in the data set on Echinochloa crus-galli [6], the “Post-emergence herbicidal effect ECHCG” value is listed as 90%. In addition, in the data set on Lolium multiflorum [20], the “Post-emergence herbicidal effect LOLMU” value came out at 100%. In addition, the “Post-emergence herbicidal effect MATIN” value with Matricaria inodora [8] is 80%.

Usually chromatographic logP stands for lipophilicity estimated from chromatographic retention.
